According to article PMC6148235, “A structural investigation of NRZ mediated apoptosis regulation in zebrafish” (Cell Death & Disease, 2018):
Residues, ends and D or L forms follow the SMILES beside them. No end group written: not given here.

T1: NRZ R86A (Danio rerio, UniProt Q8UWD5, R86A)
T1 sequence (Q8UWD5 1-148 R86A): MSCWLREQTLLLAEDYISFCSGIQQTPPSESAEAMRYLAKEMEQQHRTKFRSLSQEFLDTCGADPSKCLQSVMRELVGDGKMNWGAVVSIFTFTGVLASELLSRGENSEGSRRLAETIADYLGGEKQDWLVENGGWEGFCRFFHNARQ

T2: NRZ D79A (Danio rerio, UniProt Q8UWD5, D79A)
T2 sequence (Q8UWD5 1-148 D79A): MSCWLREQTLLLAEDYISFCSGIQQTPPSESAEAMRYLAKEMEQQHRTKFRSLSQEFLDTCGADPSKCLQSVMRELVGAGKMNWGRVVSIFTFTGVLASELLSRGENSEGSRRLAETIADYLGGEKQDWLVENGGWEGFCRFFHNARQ

T3: wt-NRZ (Danio rerio, UniProt Q8UWD5)
T3 sequence (Q8UWD5 1-148): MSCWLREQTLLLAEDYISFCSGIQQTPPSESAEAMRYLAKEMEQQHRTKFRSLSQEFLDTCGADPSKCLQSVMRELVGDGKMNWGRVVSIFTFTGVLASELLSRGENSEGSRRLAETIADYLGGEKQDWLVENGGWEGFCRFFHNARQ


Legend:
NRZ R86A = target: T1, NRZ R86A; assay: ITC affinity measurement of NRZ: BH3 motif interactions (mutant R86A); assay type: binding, zebrafish (Danio rerio); parameters: key to NRZ R86A KD: NB: no binding; conditions: MicroCal iTC200, 25 °C, 25 mM HEPES pH 7.5, 150 mM NaCl, 2 mM BME, protein 30 μM, peptide 300 μM, 19 injections of 2.0 μl, means of three replicates with standard error
Protocol: (§1) NRZ mutants D79A and R86A were codon-optimized and synthesized (Genscript) and subsequently cloned into the pGEX-6P-3 vector (Invitrogen). Expression and purification were performed using the same protocol as for wild-type NRZ.
(§2) Binding affinities were measured by isothermal titration calorimetry (ITC) employing a MicroCal iTC200 system (GE Healthcare) at 25 °C using wt-NRZ, and NRZ mutants D79A and R86A in 25 mM HEPES, pH 7.5, 150 mM NaCl, 2 mM BME at a final concentration of 30 μM as previously described. BH3 motif peptide ligands were used at a concentration of 300 μM and titrated using 19 injections of 2.0 μl of ligand. All affinity measurements were performed in triplicate. Protein concentrations were measured using a Nanodrop UV spectrophotometer (Thermo Scientific, Scoresbury, Australia) at a wavelength of 280 nm. Peptide concentrations were calculated based on the dry peptide weight after synthesis. The zebrafish BH3-motif peptides used were commercially synthesized and were purified to a final purity of 95% (GenScript, Piscataway, New Jersey, US). zBim: […] (UniProt accession code B2KKY9, residues 117–142), zPuma: […] (accession code Q0GKC9, residues 123–148), zBik: […] (accession code Q5RGV6, residues 30–55), zBax: […] (accession code Q9I9N4, residues 52–79), zBid: […] (accession code Q0GKC5, residues 85–112), zBad: […] (accession code A7MCM4, 88–113 residues), zBmf: […] (accession code Q0GKC7, residues 89–114), zNoxa: […] (accession code Q0GKC8, residues 5–30), zBok: […] (accession code Q7T381, residues 60–85), zBeclin: […] (accession code F1RCP1, residues 102–127), zBcl-wav: […] (accession code D2Y5Q2, residues 42–67).

NRZ D79A = target: T2, NRZ D79A; assay: ITC affinity measurement of NRZ: BH3 motif interactions (mutant D79A); assay type: binding, zebrafish (Danio rerio); parameters: key to NRZ D79A KD: NB: no binding; conditions: MicroCal iTC200, 25 °C, 25 mM HEPES pH 7.5, 150 mM NaCl, 2 mM BME, protein 30 μM, peptide 300 μM, 19 injections of 2.0 μl, means of three replicates with standard error
Protocol: as §1, §2

wt-NRZ = target: T3, wt-NRZ; assay: ITC affinity measurement of NRZ: BH3 motif interactions (wild type); assay type: binding, zebrafish (Danio rerio); conditions: MicroCal iTC200, 25 °C, 25 mM HEPES pH 7.5, 150 mM NaCl, 2 mM BME, NRZ 30 μM, peptide 300 μM, 19 injections of 2.0 μl, means of three replicates with standard error
Protocol: as §2

[1] = target: NRZ R86A (zebrafish (Danio rerio)) (UniProt Q8UWD5); assay: ITC; MicroCal iTC200, 25 °C; NRZ (wt, D79A or R86A) at 30 μM in 25 mM HEPES pH 7.5, 150 mM NaCl, 2 mM BME; BH3 peptide at 300 μM titrated in 19 injections of 2.0 μl; triplicate
[2] = target: NRZ D79A (zebrafish (Danio rerio)) (UniProt Q8UWD5); assay: as above
[3] = target: NRZ (zebrafish pro-survival Bcl-2 protein), lacking the 28 C-terminal residues (zebrafish (Danio rerio)); assay: as above

Row | Molecule | Kd (NRZ R86A) [nM] | Kd (NRZ D79A) [nM] | Kd [1] [nM] | Kd [2] [nM] | also measured
1 | ALWAAKKYGQQLRRMSDEFDKGQMKR [Bad] | 4800 ± 88 | 3330 ± 41 | – | – | –
2 | EEQAVERVAVQLRTIGDEMNAVFLQR [Puma] | 2770 ± 162 | 117 ± 5 | – | – | –
3 | AQSVETLIGQKLQLIGDQFYQEHIMH [Bmf] | – | – | – | – | NRZ R86A KD (NRZ R86A): NB; NRZ D79A KD (NRZ D79A): NB; WT NRZ KD (wt-NRZ): no detectable affinity and no affinity and NB
4 | CC[C@H](C)[C@H](NC(=O)[C@H](CCC(N)=O)NC(=O)[C@H](CCC(N)=O)NC(=O)[C@H](CC(C)C)NC(=O)[C@H](CS)NC(=O)[C@H](CCC(N)=O)NC(=O)[C@H](C)NC(=O)[C@H](CC(C)C)NC(=O)[C@H](CCCNC(=N)N)NC(=O)[C@H](CCCCN)NC(=O)[C@H](Cc1c[nH]cn1)NC(=O)[C@H](CO)NC(=O)[C@@H]1CCCN1C(=O)[C@H](CC(=O)O)NC(=O)[C@H](CS)NC(=O)[C@H](CC(C)C)NC(=O)[C@@H](N)CCC(=O)O)C(=O)NCC(=O)N[C@@H](CC(=O)O)C(=O)N[C@@H](CCC(=O)O)C(=O)N[C@@H](CC(C)C)C(=O)N[C@@H](CC(=O)O)C(=O)NCC(=O)N[C@@H](CC(N)=O)C(=O)N[C@@H](C)C(=O)N[C@@H](CCC(N)=O)C(=O)N[C@@H](CC(C)C)C(=O)N[C@@H](CCC(N)=O)C(=O)O [Bax] (H-ELCDPSHKRLAQCLQQIGDELDGNAQLQ-OH) | 4600 ± 440 | 264 ± 42 | – | – | –
5 | DGGTMENLSRRLKVTSNLFDIMSGQT [Beclin] | – | – | – | – | NRZ R86A KD (NRZ R86A): NB; NRZ D79A KD (NRZ D79A): NB; WT NRZ KD (wt-NRZ): no detectable affinity and NB; WT NRZ KD (wt-NRZ; listed as Beclin-1): does not bind
6 | EARAAREMAAELIRIADLLEQSVLSQAA [Bid] | – | 220 ± 16 | – | – | –
7 | NMRVTQTIGRQLAQIGDEMDNKWRQE [Bik] | 17 ± 3 | 14 ± 3 | – | – | –
8 | LCPAPSRASAALRHAGDELLIRFPIF [Bcl-wav] | – | – | – | – | NRZ R86A KD (NRZ R86A): ablated; NRZ D79A KD (NRZ D79A): ablated; Kd (wt-NRZ): 3570 ± 162 nM
9 | EQTAVVECAQQLRNIGDLLNWKYKLL [Noxa] | 510 ± 41 | 335 ± 31 | – | – | –
10 | ALPPEMVVARELRRIGDEFNRLYCEA [Bim] | 168 ± 8 | 13 ± 4 | – | – | –
11 | ALWAAKKYGQQLRRMSDEFDKGQMKR [zBad BH3 motif peptide] | – | – | 4800 | 3330 | –
12 | LCPAPSRASAALRHAGDELLIRFPIF [zBcl-wav BH3 motif peptide] | – | – | – | – | Kd [3]: 3570 nM

Further lines, with some results ahead:

Row | Kd (NRZ R86A) [nM] | Kd (NRZ D79A) [nM] | Kd [1] [nM] | Kd [2] [nM] | Molecule | also measured
13 | – | – | 2770 | 117 | EEQAVERVAVQLRTIGDEMNAVFLQR [zPuma BH3 motif peptide] | –
14 | – | – | 510 | 335 | EQTAVVECAQQLRNIGDLLNWKYKLL [zNoxa BH3 motif peptide] | –
15 | – | – | 4600 | 264 | ELCDPSHKRLAQCLQQIGDELDGNAQLQ [zBax BH3 motif peptide] | –
16 | – | – | 17 | 14 | NMRVTQTIGRQLAQIGDEMDNKWRQE [zBik BH3 motif peptide] | Kd [3]: 12 nM
17 | – | – | – | 220 | EARAAREMAAELIRIADLLEQSVLSQAA [zBid BH3 motif peptide] | Kd [3]: 409 nM
18 | – | – | 168 | 13 | ALPPEMVVARELRRIGDEFNRLYCEA [zBim BH3 motif peptide] | Kd [3]: 41 nM
